Columns and labels:
Format in all cases: in vivo
[1] = test system: Tobacco Budworm [Heliothis virescens (Fabricius)] eggs; assay: Tobacco budworm eggs (TBW-E); conditions: percent in solution; 2-day old eggs
In short: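 Mortality of dipped eggs served as read-out, recorded after untreated controls hatched and began feeding. Treatments used acetone solutions from 0.1% downward, with eggs incubated at 78° F; LC50 is expressed as percent of compound in the solution.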

[2] = test system: Maize weevil [Sitophilus zeamais (Motschulsky)]; assay: Maize weevil on dipped corn seeds (MW), 48 hours; conditions: percent in solution, adult weevils
Protocol: The compounds in Tables 1 and 2 above were tested for insecticidal activity using the following testing procedures. LC50 values, based on the results of these tests and calculated according to dosage-mortality curves, are expressed in Table 3.
Maize weevil [Sitophilus zeamais (Motschulsky)]:
Test compounds were diluted in a 50:50 acetone:water solution. Four corn seeds [Zea mays (L.)] which had been immersed in test solutions for 2-3 seconds and allowed to dry were placed in containers together with 10 adult weevils. The containers were covered and kept at a temperature of about 25° C. Mortality was recorded after 48 hours. Test concentrations ranged from 0.01% down to that at which 50% mortality occurred. The LC50 values are expressed below in Table 3 under the heading "MW" in terms of percent of the test compound in solution.

[3] = test system: Housefly [Musca domestica]; assay: Housefly contact mortality in dishes (HF), 48 hours; conditions: μg of test compound per 25 female flies
In short: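 Dose range started at 100 μg per 25 female flies and went downward. Insects (1-2 days old) contacted a dried acetone/peanut-oil deposit in dishes; LC50 values come from dosage-mortality curves at 48 h.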

[4] = test system: Cabbage Looper [Trichoplusia ni (Hubner)]; assay: Cabbage looper leaf dip (CL), 3-5 days; conditions: percent in solution, second-instar larvae
In short: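 Steps: dilute compound in 50-50 acetone-water from 0.1% downward; immerse cotyledon pieces 2-3 s and dry; place in humid petri dishes with five second-instar larvae; record mortality at 3-5 days. Dosage-mortality curves yield LC50 as percent in solution.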

[5] = test system: Black Bean Aphid [Aphis fabae (Scop.)]; assay: Black bean aphid spray test on nasturtium (BBA), 48 hours; conditions: percent of test compound in sprayed solution
In short: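 LC50, given as percent test compound in the sprayed liquid, was calculated from dosage-mortality curves using concentrations from 0.05% downward. Sprays in 50:50 acetone-water went to runoff on ~5 cm nasturtiums carrying 25-50 aphids of mixed ages, one day after infestation. Deaths were counted 48 h later under greenhouse conditions.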

Row | Compound | LC50 TBW E (eggs) [1] [%] | LC50 MW [2] [%] | LC50 HF [3] [µg] | LC50 CL [4] [%] | LC50 BBA [5] [%]
1 | Clc1ccc(N=C(OCc2cccc(Oc3ccccc3)c2)C2CCC2)cc1 [Compound 8] | > 0.1 | > 0.01 | 50 | 0.01 | 0.03
2 | CC(C)(C)C(=Nc1cccc(C(F)(F)F)c1)OCc1cccc(Oc2ccccc2)c1 [Compound 88] | > 0.1 | > 0.01 | > 100 | 0.018 | > 0.05
3 | CCc1ccc(N=C(OCc2cccc(Oc3ccccc3)c2)C(C)(C)C)cc1 [Compound 163] | > 0.1 | > 0.01 | > 100 | 0.004 | > 0.05
4 | CC(C)C(=Nc1ccc(F)c(Cl)c1)OCc1cccc(Oc2cccc(Cl)c2)c1 [Compound 203] | 0.06 | > 0.01 | 43 | 0.0025 | 0.006
5 | CC(C)C(=Nc1ccc(F)c(I)c1)OCc1ccc(F)c(Oc2ccccc2)c1 [Compound 334] | 0.013 | > 0.01 | 9 | 0.0007 | 0.0006
6 | CC(C)c1ccc(N=C(OCc2cccc(Oc3ccccc3)c2)C2CCC2)cc1 [Compound 339] | > 0.1 | > 0.01 | > 100 | 0.017 | 0.03
7 | CC(C)C(=Nc1ccc(Cl)c(C(F)(F)F)c1)OCc1ccc(F)c(Oc2ccc(F)cc2)c1 [Compound 340] | 0.04 | 0.0069 | 34 | 0.00037 | 0.001
8 | CC(C)C(=Nc1cccc(Cl)c1)OCc1ccc(F)c(Oc2ccc(F)cc2)c1 [Compound 341] | 0.023 | > 0.01 | 4 | 0.0005 | 0.0005
9 | CC(C)C(=Nc1cccc(OC(F)(F)F)c1)OCc1ccc(F)c(Oc2ccc(Cl)cc2)c1 [Compound 436] | < 0.1 | > 0.01 | < 100 | – | 0.0006
10 | Fc1ccc(COC(=Nc2ccc(C(F)(F)F)cc2)C2CC2)cc1Oc1ccccc1 [Compound 443] | – | < 0.01 | < 100 | 0.00015 | 0.0003
11 | Fc1ccc(COC(=Nc2ccc(C(F)(F)F)cc2)C2CC2)cc1Oc1ccc(Cl)cc1 [Compound 444] | – | > 0.01 | > 100 | 0.00015 | 0.0006
12 | CC(C)C(=Nc1ccc(F)cc1F)OCc1coc(Cc2ccccc2)c1 [Compound 486] | > 0.1 | > 0.01 | 15 | > 0.1 | –
13 | CC(C)C(=Nc1cccc(C(F)(F)F)c1)OCc1ccnc(Oc2ccc(F)cc2)c1 [Compound 508] | > 0.1 | > 0.01 | > 100 | 0.013 | –
